Some test systems named below: A549 NSCLC; NCI-H226 lung; M14 melanoma; K-562 leukemia; TK-10 renal; A498 renal; SF-295 CNS; RXF 393 renal; NCI-H460 lung; UACC-62 melanoma.
Common to all, as to test: NCI-60 cell line screen, 48 h

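How tested: cells in 96-well plates exposed to compound for 48 hours at five concentrations. GI50: concentration for 50% inhibition of growth. Definition used: TGI = concentration required for complete inhibition of growth.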 Some results are limits rather than exact numbers.

For `COc1cc(C(=O)N2CCN(C=O)C2=S)cc(OC)c1OC`, the GI50 in the assay with A549 NSCLC was 33.2 µM; in the assay on NCI-H226 lung, 35.9 µM; in the assay on M14 melanoma, 20.6 µM; in the assay on K-562 leukemia, 30.8 µM; in the assay on TK-10 renal it was 17.1 µM; with A498 renal, 20.5 µM. Besides, the GI50 is 29.3 µM in the assay on SF-295 CNS, 16.1 µM in the assay with RXF 393 renal, 34 µM with NCI-H460 lung and 15.8 µM with UACC-62 melanoma. For the same molecule, the TGI was 88.8 µM in the assay on A549 NSCLC; 84.6 µM in the assay on NCI-H226 lung; 41.6 µM in the assay with M14 melanoma; greater than 100 µM with K-562 leukemia; 36.7 µM in the assay on TK-10 renal; 37.6 µM in the assay with A498 renal. In addition, the TGI in the assay on SF-295 CNS was greater than 100 µM; with RXF 393 renal, 32.4 µM; with NCI-H460 lung, greater than 100 µM; in the assay on UACC-62 melanoma, 30.4 µM.

On to `CCN1CCN(C(=O)[C@@]2(C)CC[C@]3(C)CC[C@]4(C)C(=CC(=O)[C@@H]5[C@@]6(C)CC[C@H](OC7C[C@@H](O)[C@@H](O)C(C)O7)C(C)(C)[C@@H]6CC[C@]54C)[C@@H]3C2)CC1` (some centres undefined), for which the GI50 in the assay with A549 NSCLC was 1.76 µM; in the assay with NCI-H226 lung, 10.3 µM; in the assay with M14 melanoma, 1.04 µM; in the assay with K-562 leukemia, 1.08 µM; in the assay with TK-10 renal it was 0.806 µM; with A498 renal, 8.96 µM. Further, the GI50 was 0.934 µM in the assay with SF-295 CNS, 3.73 µM in the assay with RXF 393 renal, 0.948 µM in the assay on NCI-H460 lung and 0.892 µM with UACC-62 melanoma. Besides, the TGI in the assay with A549 NSCLC came to 8.94 µM; with NCI-H226 lung it was 21.3 µM; with M14 melanoma, 2.19 µM; in the assay with K-562 leukemia, 2.66 µM; with TK-10 renal, 1.9 µM; in the assay on A498 renal, 17 µM. Further, the TGI with SF-295 CNS was determined as 1.83 µM; with RXF 393 renal, 11.5 µM; in the assay on NCI-H460 lung it was 1.86 µM; in the assay with UACC-62 melanoma, 1.75 µM.

As to `Nc1nn2cc(F)cnc2c1C(=O)Nc1cncc(F)c1N1CCC(C(=O)N2CCN(C3COC3)CC2)CC1`, the GI50 in the assay on A549 NSCLC is 0.266 µM; in the assay with NCI-H226 lung, 1.17 µM; in the assay with M14 melanoma, 0.154 µM; in the assay on K-562 leukemia, 0.281 µM; with TK-10 renal it was 0.888 µM; in the assay with A498 renal, 0.181 µM. The GI50 was 0.238 µM in the assay on SF-295 CNS, 0.11 µM with RXF 393 renal, 0.254 µM in the assay on NCI-H460 lung and 0.522 µM in the assay with UACC-62 melanoma. Further, the TGI was greater than 100 µM with A549 NSCLC; 4.45 µM in the assay on NCI-H226 lung; 5.4 µM in the assay on M14 melanoma; 2.74 µM in the assay on K-562 leukemia; greater than 69.9 µM in the assay with TK-10 renal; 0.857 µM in the assay with A498 renal. In addition, the TGI in the assay with SF-295 CNS was determined as 1.86 µM; in the assay with RXF 393 renal, 0.778 µM; in the assay on NCI-H460 lung, 7.2 µM; in the assay on UACC-62 melanoma it was 2.56 µM.

For the molecule `O=C(O)c1nnsc1-c1ccc(-c2snnc2C(=O)O)cc1`, the TGI is greater than 100 µM in the assay on A549 NSCLC; greater than 100 µM in the assay on NCI-H226 lung; greater than 100 µM in the assay with M14 melanoma; 98.3 µM in the assay with K-562 leukemia; greater than 100 µM in the assay with TK-10 renal; greater than 100 µM with A498 renal. The TGI in the assay with SF-295 CNS, in the assay with RXF 393 renal, in the assay with NCI-H460 lung and in the assay on UACC-62 melanoma was greater than 100 µM in each case.

`CCCCC#CC1=C(Br)C(=O)OC1`: the GI50 in the assay with A549 NSCLC was 17.2 µM; with NCI-H226 lung, 3.76 µM; with M14 melanoma, 1.26 µM; with K-562 leukemia, 0.279 µM; with TK-10 renal, 1.8 µM; in the assay with A498 renal it was 18.1 µM. In addition, the GI50 was 6.2 µM with SF-295 CNS, 1.89 µM with RXF 393 renal, 14 µM in the assay with NCI-H460 lung and 2.24 µM in the assay on UACC-62 melanoma. Further, the TGI in the assay on A549 NSCLC was 43.4 µM; in the assay on NCI-H226 lung, 26.6 µM; in the assay with M14 melanoma, 3.71 µM; with K-562 leukemia, greater than 100 µM; in the assay on TK-10 renal, 4.53 µM; in the assay on A498 renal, 33.5 µM. In addition, the TGI turned out to be 28.2 µM with SF-295 CNS, 4.57 µM in the assay with RXF 393 renal, 38.8 µM in the assay with NCI-H460 lung and 7.1 µM with UACC-62 melanoma.

Turning to `NC(=O)/C=C/C(=O)c1c(Cl)cccc1Cl`, the GI50 was 1.79 µM in the assay on A549 NSCLC; 2.52 µM with NCI-H226 lung; 1.45 µM with M14 melanoma; 0.653 µM in the assay with K-562 leukemia; 1.22 µM in the assay on TK-10 renal; 1.44 µM with A498 renal. The GI50 with SF-295 CNS was 2.54 µM; in the assay on RXF 393 renal, 0.601 µM; in the assay with NCI-H460 lung it was 1.82 µM; in the assay on UACC-62 melanoma, 1.51 µM. Further, the TGI with A549 NSCLC was found to be 3.39 µM; in the assay with NCI-H226 lung, 8.25 µM; in the assay with M14 melanoma it was 2.76 µM; in the assay on K-562 leukemia, 5.83 µM; with TK-10 renal, 2.92 µM; in the assay with A498 renal it was 2.74 µM. Further, the TGI was 7.35 µM with SF-295 CNS, 1.4 µM in the assay on RXF 393 renal, 3.49 µM in the assay on NCI-H460 lung and 2.84 µM with UACC-62 melanoma.

Regarding `Cc1cc(Cl)cc(OCCn2cc(F)cn2)c1-c1nc(N)nc2c1CN(C(=O)NCC(C)(F)F)C2`, the GI50 in the assay on A549 NSCLC was 0.116 µM; with NCI-H226 lung, 0.233 µM; in the assay with M14 melanoma it was 0.0848 µM; with K-562 leukemia, 0.0519 µM; with TK-10 renal, 0.144 µM; with A498 renal it was 0.261 µM. Moreover, the GI50 is 0.131 µM in the assay on SF-295 CNS, 0.0414 µM with NCI-H460 lung and 0.0779 µM in the assay with UACC-62 melanoma. Further, the TGI with A549 NSCLC, in the assay on NCI-H226 lung, with M14 melanoma, in the assay with K-562 leukemia, in the assay with TK-10 renal and with A498 renal was greater than 100 µM in each case. The TGI with SF-295 CNS is greater than 93.9 µM; with RXF 393 renal it was greater than 100 µM; in the assay with NCI-H460 lung it was greater than 100 µM; with UACC-62 melanoma, greater than 100 µM.

With `O=C(Nc1ccc(Nc2ccncc2)cc1)c1ccc([N+](=O)[O-])cc1`, the GI50 in the assay with A549 NSCLC is 10 µM; in the assay on NCI-H226 lung, 12.1 µM; in the assay on M14 melanoma it was 7.18 µM; in the assay with K-562 leukemia it was 3.11 µM; with TK-10 renal it was 11.2 µM; in the assay on A498 renal, 2.43 µM. For the same molecule, the GI50 in the assay on SF-295 CNS is 3.79 µM; in the assay on RXF 393 renal, 3.35 µM; with NCI-H460 lung it was 4.24 µM; with UACC-62 melanoma, 2.65 µM. Further, the TGI was 33.1 µM in the assay with A549 NSCLC; 29.7 µM in the assay on NCI-H226 lung; 26.9 µM in the assay with M14 melanoma; greater than 28.2 µM in the assay with K-562 leukemia; 31.3 µM with TK-10 renal; 9 µM in the assay with A498 renal. The TGI with SF-295 CNS came out at 10.3 µM; with RXF 393 renal, 12.4 µM; in the assay with NCI-H460 lung, 16.5 µM; in the assay on UACC-62 melanoma it was 9.64 µM.

For the origin of these results see PubChem BioAssay (NCI).
